From patent US8134015B2, “Compound inhibiting in vivo phosphorous transport and medicine containing the same” (Kyowa Hakko Kirin Co., Ltd., priority 2003, dated 2012)

The compounds below were run against T1, rat NaPi-2b (Rattus norvegicus, UniProt Q9JJ09) (assay: Sodium-dependent phosphate uptake of Xenopus oocytes which expressed NaPi-2b (32P)). Conditions: Xenopus oocytes expressing rat NaPi-2b, 32P radioactive phosphorus; read-out: IC50 (phosphate uptake inhibitory activity).
T1 construct: expressed in transfected cells; host or cells: Xenopus oocytes injected with cRNA
T1 sequence (Q9JJ09 1-695): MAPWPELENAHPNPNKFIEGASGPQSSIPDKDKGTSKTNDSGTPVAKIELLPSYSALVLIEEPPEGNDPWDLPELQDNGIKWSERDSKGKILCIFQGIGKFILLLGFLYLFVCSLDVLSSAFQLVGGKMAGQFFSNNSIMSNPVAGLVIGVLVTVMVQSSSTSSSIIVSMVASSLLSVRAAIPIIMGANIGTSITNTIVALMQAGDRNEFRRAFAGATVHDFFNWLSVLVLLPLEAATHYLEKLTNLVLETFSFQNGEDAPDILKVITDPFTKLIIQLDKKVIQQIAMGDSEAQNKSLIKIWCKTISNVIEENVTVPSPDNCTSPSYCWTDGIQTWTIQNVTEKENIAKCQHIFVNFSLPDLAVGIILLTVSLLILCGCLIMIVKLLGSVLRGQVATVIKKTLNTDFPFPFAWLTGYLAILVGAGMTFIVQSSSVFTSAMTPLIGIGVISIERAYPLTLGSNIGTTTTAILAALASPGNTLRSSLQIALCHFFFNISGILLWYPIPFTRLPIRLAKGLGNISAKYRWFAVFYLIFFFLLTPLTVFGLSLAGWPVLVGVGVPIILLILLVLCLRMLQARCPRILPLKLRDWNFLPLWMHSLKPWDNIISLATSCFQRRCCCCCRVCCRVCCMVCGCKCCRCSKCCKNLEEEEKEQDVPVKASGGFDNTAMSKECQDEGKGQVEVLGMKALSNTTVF
Type: cell-based
Outline: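 Percent inhibition at 300 μM and 100 μM comes from the same inhibition curve of 32P uptake. Assay used oocytes expressing rat NaPi-2b after 2 days of culture.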

| Compound | IC50 [µM] |
| --- | --- |
| Cc1cc(/C=N/NC(=O)c2cc(Br)ccc2NC(=O)c2cccnc2)oc1C [Compound 220, N-[4-Bromo-2-(4,5-dimethyl-furan-2-ylmethylene-hydrazinocarbonyl)-phenyl]-nicotinamide] | 9.42 |
| O=C(Nc1sc2c(c1C(=O)N/N=C/c1cccc(F)c1)CCCC2)c1cccc(CN2CCC(N3CCCCC3)CC2)c1 [Compound 618, 3-[1,4′]Bipiperidinyl-1′-ylmethyl-N-[3-(3-fluoro-benzylidene-hydrazinocarbonyl)-4,5,6,7-tetrahydro-benzo[b]thiophen-2-yl]-benzamide] | 4.25 |
| Cc1ccc(/C=N/NC(=O)c2cc(N3CCCCC3)ccc2NC(=O)c2cccc(CN3CCC(O)CC3)c2)cc1C [Compound 870, N-[2-(3,4-Dimethyl-benzylidene-hydrazinocarbonyl)-4-piperidin-1-yl-phenyl]-3-(4-hydroxy-piperidin-1-ylmethyl)-benzamide] | 0.53 |
| Cc1cccc(/C=N/NC(=O)c2cc(Br)ccc2NC(=O)c2ccc(CN3CCN(CCO)CC3)cc2)c1 [Compound 318, N-[4-Bromo-2-(3-methyl-benzylidene-hydrazinocarbonyl)-phenyl]-4-[4-(2-hydroxy-ethyl)-piperazin-1-ylmethyl]-benzamide] | 2.49 |
| CN(CCCCCCN(C)Cc1cccc(C(=O)Nc2ccc(Cl)cc2C(=O)N/N=C/c2ccc(Cl)c(C(F)(F)F)c2)c1)Cc1cccc(C(=O)Nc2ccc(Cl)cc2C(=O)N/N=C/c2ccc(Cl)c(C(F)(F)F)c2)c1 [Compound 690, N1-[4-Chloro-2-({2-[(E)-1-(4-chloro-3-trifluoromethyl-phenyl)methylidene]hydrazino}carbonyl)phenyl)-3-{[{6-[(3-{[4-chloro-2-({2-[(E)-1-(4-chloro-3-trifluoromethyl-phenyl)methylidene]hydrazino}-carbonyl}anilino}carbonyl}benzyl}(methyl)amino)hexyl)(methyl)amino]-methyl]benzamide] | 88 |
| CCOc1ccc(C(=O)Nc2ccc(Br)cc2C(=O)N/N=C/c2ccc(F)cc2)cc1 [Compound 502, N-[4-Bromo-2-(4-fluoro-benzylidene-hydrazinocarbonyl)-phenyl]-4-ethoxy-benzamide] | 15.7 |
| CCN(CC)CCN(C)Cc1cccc(C(=O)Nc2ccc(I)cc2C(=O)N/N=C/c2ccc(Cl)c(C(F)(F)F)c2)c1 [Compound 477, N-[2-(4-chloro-3-trifluoromethyl-benzylidene-hydrazinocarbonyl)-4-iodo-phenyl]-3-{[(2-diethylamino-ethyl)-methyl-amino]-methyl}-benzamide] | < 3 |
| CCN(CC)CCN(C)Cc1cccc(C(=O)Nc2scc(C)c2C(=O)N/N=C/c2cccc(F)c2)c1 [Compound 566, 3-{[(2-Diethylamino-ethyl)-methyl-amino]-methyl}-N-[3-(3-fluoro-benzylidene-hydrazinocarbonyl)-4-methyl-thiophen-2-yl]-benzamide] | 14.6 |
| CN(Cc1ccc(C(=O)Nc2ccc(Br)cc2C(=O)N/N=C/c2ccc(Cl)c(C(F)(F)F)c2)cc1)CC(O)c1ccc(O)cc1 (centres unmarked) [Compound 726, N-[4-Bromo-2-(4-chloro-3-trifluoromethyl-benzylidene-hydrazinocarbonyl)-phenyl]-4-({[2-hydroxy-2-(4-hydroxy-phenyl)-ethyl]-methyl-amino}-methyl)-benzamide] | < 3 |

Same assay, conditions: phosphate uptake, oocytes expressing rat NaPi-2b; 300 μM, determined from inhibition curve

| Compound | inhibition at 300 µM [%] |
| --- | --- |
| Cc1csc(NC(=O)c2cccc(CSCCS(=O)(=O)O)c2)c1C(=O)N/N=C/c1ccc(Cl)c(C(F)(F)F)c1 [Compound 784, 2-{3-[3-(4-Chloro-3-trifluoromethyl-benzylidene-hydrazinocarbonyl)-4-methyl-thiophen-2-ylcarbamoyl]-benzylsulfanyl}-ethanesulfonic acid] | 88.5 |
| Cc1csc(C(=O)N/N=C/c2ccc(Cl)c(C(F)(F)F)c2)c1NC(=O)c1cccc(CN(CC(C)O)CC(C)O)c1 (centres unmarked) [Compound 707, 3-{[Bis-(2-hydroxy-propyl)-amino]-methyl}-N-[2-(4-chloro-3-trifluoromethyl-benzylidene-hydrazinocarbonyl)-4-methyl-thiophen-3-yl]-benzamide] | 41.2 |
